Reference: patent US9718825B2, “N-(4-(azaindazol-6-yl)-phenyl)-sulfonamides and their use as pharmaceuticals” (priority 2013, dated 2017)
Like-named read-outs stand apart in the source and are kept apart here.

What was measured:
[1] = tested on: SGK-1 dependent activation of ENaC-currents in A6 cell monolayers; assay: Functional electrophysiological assay (Ussing chamber): SGK-1 dependent activation of ENaC-currents in A6 cell monolayers; type: cell-based, Xenopus laevis; conditions: hypoosmotic shock 45 min, amiloride-sensitive ΔI'sc, read-out: IC50 values for inhibition of SGK-1 dependent activation of ENaC-currents in A6 cell monolayers
Experimental: C) Functional Electrophysiological Assay for Determination of SGK-1 Dependent Activation of ENaC-Currents in A6 Cell Monolayers
Cells were grown in cell culture flasks (Nunc) at 28° C. in a humidified atmosphere with 4% CO2. The culture medium contained a 7:3 mixture of Leibovitz's L-15 (Sigma-Aldrich)/Coon's (Sigma-Aldrich) media supplemented with 10% fetal bovine serum (PAA), 20% sterile water, 25 mM NaHCO3 (Sigma-Aldrich), 100 U/ml penicillin (PAA) and 100 μg/ml streptomycin (PAA). The osmolality of the medium was 270 mOsml/kg H2O). Cells were detached with accutase (PAA) and seeded for electrophysiological measurements into transwell filter inserts (polyester 0.4 μm pore size, Corning) at a density of 0.4×10^6 cells/filter. Cells were cultivated for 7-10 days, and confluent A6 cell monolayers were identified by repetitive resistance measurements in cell culture medium using an EVOM^2 ohmmeter (World Precision Instruments). Monolayers with a resistance of >10 kOhm were considered confluent. Filters with confluent A6 cells were transferred into a continuously perfused Ussing-chamber, and electrophysiological parameters were measured under open circuit conditions using a transepithelial clamp amplifier (EP Design). Short circuit current (I′sc) was calculated by Ohm's law. […] The pH was adjusted to 8.2. All measurements were done at room temperature.
To evaluate the effects of SGK inhibitors on ENaC-mediated transepithelial currents, A6 monolayers were first equilibrated for 5 min with isoosmotic Ringer solution from both the luminal and basolateral side of the cell layer. Amiloride was applied to the luminal site to establish the basal ENaC-dependent current (I′scbasal). Cell layers were then perfused from the basolateral side for 10 min with compounds in isotonic buffer or control isotonic buffer. SGK signaling leading to increased ENaC activity and subsequent increase in I′sc was stimulated by application of hypoosmotic Ringer-solution for 45 min to both sides of the A6 cell layer. ENaC-dependent I′sc after the hypoosmotic shock (I′schypo) was determined by application of amiloride at the end of the experiment. Total changes of amiloride-sensitive Isc was calculated as ΔI′sc=I′schypo−I′scbasal. […] The inhibition of ΔI′sc by the test compounds was determined relative to the ΔI′sc measured with control monolayers which were not treated with the test compound.

[2] = tested on: collagen type X (Col10a1) expression in mouse chondrogenic ATDC5 cells; assay: Chondrocyte hypertrophic differentiation in mouse chondrogenic ATDC5 cells (collagen type X expression); type: cell-based; conditions: Col10a1 expression by quantitative real-time PCR after two weeks of cell culture, read-out: IC50 values for the inhibition of collagen type X expression in mouse chondrogenic ATDC5 cells
Source text: D) Determination of the effect on chondrocyte hypertrophic differentiation in mouse chondrogenic ATDC5 cells
The ATDC5 cell assay was used as in vitro model to determine the effects of the compounds of the invention on chondrocyte hypertrophic differentiation by monitoring the expression levels of collagen type X (Col10a1) as specific marker of chondrocyte hypertrophy.
Background: ATDC5 cells are a clonal mouse embryonic cell line derived from multipotent AT805 teratocarcinoma cells (Atsumi, T. et al., A chondrogenic cell line derived from a differentiating culture of AT805 teratocarcinoma cells, Cell Differ. Dev. 1990, 30, 109-116). The cells can undergo insulin-dependent chondrogenic cell differentiation entailing distinct differentiation stages starting from an undifferentiated, subconfluent stage, a condensation stage, a cartilage nodule formation stage and a calcification stage within 45 days of in vitro culture. Chondrogenic differentiation can be shown by measuring the expression of the cartilage main collagen (Col2a1) and aggrecan (AGC1) and glycosaminoglycan-staining with Alcian Blue within two weeks after insulin-triggered differentiation, and hypertrophic differentiation can be monitored by the expression of collagen type X (Col10a1), a specific marker of chondrocyte hypertrophy within 21 days of in vitro culture. (Shukunami, C. et al., Chondrogenic Differentiation of Clonal Mouse Embryonic Cell Lne ATDC5 In Vitro: Differentiation-dependent Gene Expression of Parathyroid Hormone (PTH)/PTH-related Peptide Receptor, J. Cell Biol. 1996, 133, 457-468). Growth factor BMP-2 is known to stimulate cell differentiation and can stimulate early and late-phase ATDC5 differentiation (Shukunami, C. et al., Sequential Progression of the Differentiation Program by Bone Morphogenetic Protein-2 in Chondrogenic Cell Line ATDC5, Exp. Cell Res. 1998, 241, 1-11). Thyroid hormone triiodothyronine (T3) promotes hypertrophic differentiation of growth plate chondrocytes (Robson, H. et al., Thyroid Hormone Acts Directly on Growth Plate Chondrocytes to Promote Hypertrophic Differentiation and Inhibit Clonal Expansion and Cell Proliferation, Endocrinology 2000, 141, 3887-3897). Addition of BMP2 and T3 can accelerate ATDC5 hypertrophic differentiation leading to the strong induction Col10a1 expression between 10-14 days. SGK-inhibitors were added to differentiating ATDC5 cells for 14 days and Col10a1 gene expression was quantified to determine effects on chondrocyte hypertrophic differentiation.
Cell assay description: ATDC5 cells were maintained in 300 cm^2 tissue culture flasks in DMEM/Ham's F12+5% FCS supplemented with 10 μg/ml human transferrin, 30 nM sodium selenite, 50 μg/ml kanamycin and grown at 37° C. in 5% CO2 in 95% air. To initiate cell differentiation, 9.9×10^4 cells were plated in 24 well plates and grown for 2 days. Medium was exchanged with DMEM/Ham's F12+5% FCS supplemented with 10 μg/ml human transferrin, 30 nM sodium selenite, 50 μg/ml ascorbic acid and 1 μg/ml BMP2. The assay was run in triplicates, compounds were added in […], and medium changed every 2-3 days including supplementation of compound. At day 7 after initiation of cell differentiation, 1 μM T3 was used as additional supplement in the cell culture.
After two weeks of cell culture, RNA was isolated and converted to cDNA for determination of gene expression by quantitative real-time PCR. Cells were lysed in 600 μl of RLT-buffer (Qiagen) and total RNA was isolated using the RNA-easy Mini RNA isolation Kit (Qiagen) which was run on a Qiacube system (Qiagen) according to the supplier's instructions. RNA was isolated in 30 μl of pure water and the RNA content measured by UV-spectroscopy (Nanodrop, Peqlab). For cDNA synthesis 50 ng total RNA was reverse transcribed using the High Capacity cDNA Reverse Transcription Kit (Applied Biosystems, Product Number 4368813) according to the manufacturer's instructions. […]

[3] = molecular target: recombinant human SGK-1 enzyme (Homo sapiens, UniProt O00141); assay: Enzymatic activity assay: SGK-1 substrate peptide phosphorylation (Caliper lab-chip mobility shift); type: biochemical
recombinant human SGK-1 enzyme (Homo sapiens, UniProt O00141), sequence (O00141 whole entry, looked up): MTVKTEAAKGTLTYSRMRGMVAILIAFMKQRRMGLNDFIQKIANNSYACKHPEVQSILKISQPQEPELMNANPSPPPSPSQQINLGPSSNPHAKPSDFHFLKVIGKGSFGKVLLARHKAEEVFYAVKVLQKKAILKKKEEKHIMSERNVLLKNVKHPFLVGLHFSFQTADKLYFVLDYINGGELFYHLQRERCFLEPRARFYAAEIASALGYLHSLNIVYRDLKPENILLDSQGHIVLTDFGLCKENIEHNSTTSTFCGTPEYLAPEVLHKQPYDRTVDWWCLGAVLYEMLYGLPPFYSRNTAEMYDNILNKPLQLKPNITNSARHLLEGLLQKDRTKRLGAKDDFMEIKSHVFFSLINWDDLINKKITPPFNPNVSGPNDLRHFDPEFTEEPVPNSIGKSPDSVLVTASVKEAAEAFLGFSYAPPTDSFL

[4] = tested on: SGK-1 dependent phosphorylation of GSK3beta in U2OS cells; assay: SGK-1 dependent phosphorylation of GSK3beta in U2OS cells overexpressing recombinant SGK-1 and GSK3beta; type: cell-based, human; conditions: U2OS cells, 6 h incubation, ratio of phosphorylated GSK3beta to total GSK3beta, read-out: IC50 values for inhibition of SGK-1 dependent phosphorylation of GSK3beta in U2OS cells
[5] = molecular target: recombinant human SGK-1 enzyme; assay: Enzymatic activity assay: SGK-1 substrate peptide phosphorylation (Caliper lab-chip mobility shift); type: biochemical; conditions: peptide substrate 1 μM, ATP 10 μM, 60 min at 37° C., read-out: IC50 values for inhibition of SGK-1 enzymatic activity
[6] = Mus musculus, Chondrocyte, 336 h
[7] = read-out: IC50 values for inhibition of SGK-1 enzymatic activity, peptide substrate 1 μM, ATP 10 μM, 60 min at 37° C.
[8] = peptide substrate 1 μM, ATP 10 μM, 60 min at 37° C., read-out: IC50 values for inhibition of SGK-1 enzymatic activity

SMILES	IC50 ([1]; Xenopus laevis, INA-6, 0.75 h)	IC50 [2, 6]	IC50 [3, 7]	IC50 ([4]; Homo sapiens)	IC50 [3, 8]	IC50 [4]	IC50 [1]	IC50 [2]	IC50 [5]
O=S(=O)(Nc1ccc(-c2nc(OC3CCC(O)CC3)c3cn[nH]c3n2)cc1)c1cc(Cl)ccc1F (stereo not shown) [Example 3, 5-Chloro-2-fluoro-N-{4-[4-(4-hydroxy-cyclohexyloxy)-1H-pyrazolo[3,4-d]pyrimidin-6-yl]-phenyl}-benzenesulfonamide]	3400 nM	52 nM	–	–	–	–	–	–	–
Cc1ccc(C#N)c(S(=O)(=O)Nc2ccc(-c3nc(OC4CCC(O)CC4)c4cn[nH]c4n3)cc2)c1 (stereo not shown) [Example 4, 2-Cyano-N-{4-[4-(4-hydroxy-cyclohexyloxy)-1H-pyrazolo[3,4-d]pyrimidin-6-yl]-phenyl}-5-methyl-benzenesulfonamide]	3200 nM	9 nM	< 1.5 nM	110 nM	–	–	–	–	–
O=S(=O)(Nc1ccc(-c2nc(OC3CCC(O)CC3)c3cn[nH]c3n2)cc1)c1cc(Cl)ccc1Cl (stereo not shown) [Example 61]	–	–	–	–	< 1.2 nM	430 nM	1400 nM	36 nM	–
N#Cc1ccc(Cl)cc1S(=O)(=O)Nc1ccc(-c2nc(OC3CCC(O)CC3)c3cn[nH]c3n2)cc1 (stereo not shown) [Example 83]	–	–	–	–	2 nM	2100 nM	1900 nM	130 nM	–
CC(C)COc1nc(-c2ccc(NS(=O)(=O)c3cc(Cl)ccc3Cl)cc2)nc2[nH]nc(N)c12 [Example 310]	–	–	–	–	130 nM	220 nM	10000 nM	–	–
Cc1ccc(F)c(S(=O)(=O)Nc2ccc(-c3nc(OCC(C)C)c4c(N)n[nH]c4n3)cc2)c1 [Example 317]	–	–	–	–	11 nM	210 nM	10000 nM	–	–
Cc1n[nH]c2nc(-c3ccc(NS(=O)(=O)c4cc(Cl)ccc4F)cc3)nc(OC3CCN(C(C)C)CC3)c12 [Example 346]	–	–	–	–	3.2 nM	–	2000 nM	66 nM	–
Cc1n[nH]c2nc(-c3ccc(NS(=O)(=O)c4cc(F)ccc4F)cc3)nc(OC3CCN(C(C)C)CC3)c12 [Example 349]	–	–	–	–	8.4 nM	–	3200 nM	380 nM	–
N#Cc1ccc(Cl)cc1S(=O)(=O)Nc1ccc(-c2ncc3c(N)n[nH]c3n2)cc1 [Example 446, N-[4-(3-Amino-1H-pyrazolo[3,4-d]pyrimidin-6-yl)-phenyl]-5-chloro-2-cyano-benzenesulfonamide]	190 nM	550 nM	–	3700 nM	–	–	–	–	–
Cc1nc(-c2ccc(NS(=O)(=O)c3cc(Cl)c(F)cc3F)cc2)nc2[nH]nc(N)c12 [Example 447, N-[4-(3-Amino-4-methyl-1H-pyrazolo[3,4-d]pyrimidin-6-yl)-phenyl]-5-chloro-2,4-difluoro-benzenesulfonamide]	60 nM	330 nM	< 1.5 nM	340 nM	–	–	–	–	–
COc1ccc(Cl)c(S(=O)(=O)Nc2ccc(-c3ncc4c(N)n[nH]c4n3)cc2)c1 [Example 461]	–	–	–	–	< 1.5 nM	260 nM	180 nM	–	–
COc1ccc(Cl)c(S(=O)(=O)Nc2ccc(-c3nc(C)c4c(N)n[nH]c4n3)cc2)c1 [Example 467]	–	–	–	–	< 1.5 nM	150 nM	160 nM	53 nM	–
Cc1ccc(C#N)c(S(=O)(=O)Nc2ccc(-c3nc(C)c4c(N)n[nH]c4n3)cc2)c1 [Example 468]	–	–	–	–	< 1.5 nM	230 nM	610 nM	870 nM	–
Cc1nc(-c2ccc(NS(=O)(=O)c3cc(Cl)ccc3C#N)cc2)nc2[nH]ncc12 [Example 492]	–	–	–	–	3.8 nM	4200 nM	1100 nM	660 nM	–
Nc1n[nH]c2nc(-c3ccc(NS(=O)(=O)c4cc(F)ccc4F)cc3)ncc12 [Example 519]	–	–	–	–	190 nM	260 nM	1100 nM	260 nM	–
COc1ccc(C#N)c(S(=O)(=O)Nc2ccc(-c3nc(C4CC4)c4c(N)n[nH]c4n3)cc2)c1 [Example 520]	–	–	–	–	< 1.5 nM	61 nM	500 nM	30 nM	–
Nc1n[nH]c2cc(-c3ccc(NS(=O)(=O)c4cc(Cl)c(F)cc4F)cc3)nc(O)c12 [Example 549, N-[4-(3-Amino-4-hydroxy-1H-pyrazolo[4,3-c]pyridin-6-yl)phenyl]-5-chloro-2,4-difluoro-benzenesulfonamide]	–	–	–	–	–	–	–	–	7.7 nM
Nc1n[nH]c2cc(-c3ccc(NS(=O)(=O)c4cc(Cl)c(F)cc4F)cc3)ncc12 [Example 555]	–	–	–	–	< 1.5 nM	3800 nM	600 nM	–	–
Nc1n[nH]c2cc(-c3ccc(NS(=O)(=O)c4cc(Cl)ccc4Cl)cc3)ncc12 [Example 556]	–	–	–	–	1.7 nM	1700 nM	2000 nM	–	–
O=S(=O)(Nc1ccc(-c2cc3[nH]ncc3cn2)cc1)c1cc(Cl)ccc1Cl [Example 563, 2,5-Dichloro-N-[4-(1H-pyrazolo[4,3-c]pyridin-6-yl)phenyl]benzenesulfonamide]	–	–	–	–	–	–	–	–	52 nM
